Measurements as given in ChEMBL document CHEMBL5500370, “Discovery of potent and novel dual NAMPT/BRD4 inhibitors for efficient treatment of hepatocellular carcinoma” (Eur J Med Chem, 2024).

Tests used:
[1] = target: Bromodomain-containing protein 4 (Homo sapiens, UniProt O60885); test: Inhibition of BRD4 (unknown origin) incubated for 120 mins by TR-FRET assay
[2] = target: Nicotinamide phosphoribosyltransferase (Homo sapiens, UniProt P43490); test: Inhibition of recombinant NAMPT (unknown origin) by fluorescence based assay
Hep 3B2 [3] = test: cells; conditions: Homo sapiens, Hep3B, 120 h
Hep 3B2 [4] = test: Antiproliferative activity against human Hep3B cells measured after 72 hrs; type: functional, cell-based
Hep 3B2 [5] = test: Synergistic antiproliferative activity against human Hep3B cells measured after 72 hrs in presence of FK866; type: functional, cell-based
[6] = Antiproliferative activity against human LX2 cells incubated for 120 hrs by MTT assay; type: toxicity, cell-based; conditions: LX-2 cells
Huh-7 [7] = test: Antiproliferative activity against human Huh-7 cells incubated for 120 hrs in presence of FK866 by MTT assay; type: functional, cell-based; conditions: Huh-7, 120 h
HCCLM3 [8] = test: Antiproliferative activity against human HCCLM3 cells incubated for 120 hrs in presence of FK866 by MTT assay; type: functional, cell-based; conditions: HCCLM3, 120 h
[9] = Antiproliferative activity against human LX2 cells incubated for 120 hrs in presence of FK866 by MTT assay; type: toxicity, cell-based; conditions: LX-2 cells
Hep 3B2 [10] = test: Induction of apoptosis in human Hep3B cells assessed as viable cells at 10 uM measured after 72 hrs by Annexin V-FITC/PI staining based flow cytometry (reference value: 94.08 %); type: functional
Hep 3B2 [11] = test: Induction of apoptosis in human Hep3B cells assessed as early apoptotic cells at 10 uM measured after 72 hrs by Annexin V-FITC/PI staining based flow cytometry (reference value: 2.13 %); type: functional
Hep 3B2 [12] = test: Induction of apoptosis in human Hep3B cells assessed as late apoptotic cells at 10 uM measured after 72 hrs by Annexin V-FITC/PI staining based flow cytometry (reference value: 1.05 %); type: functional
Hep 3B2 [13] = test: Induction of apoptosis in human Hep3B cells assessed as necrotic cells at 10 uM measured after 72 hrs by Annexin V-FITC/PI staining based flow cytometry (reference value: 2.74 %); type: functional
Hep 3B2 [14] = test: Induction of cell cycle arrest at G0/G1 phase in human Hep3B cells at 10 uM measured after 72 hrs by PI/RNase staining based flow cytometry (reference value: 56.73 %); type: functional
Hep 3B2 [15] = test: Induction of cell cycle arrest at G2/M phase in human Hep3B cells at 10 uM measured after 72 hrs by PI/RNase staining based flow cytometry (reference value: 11.37 %); type: functional
Hep 3B2 [16] = test: Induction of cell cycle arrest at S phase in human Hep3B cells at 10 uM measured after 72 hrs by PI/RNase staining based flow cytometry (reference value: 31.90 %); type: functional
HCCLM3 [17] = test: Antitumor activity against human HCCLM3 cells xenografted in BALB/c nude mouse at 60 mg/kg, ip for 27 days relative to control; type: functional; conditions: time 27 day
Huh-7 [18] = test: cells; conditions: Homo sapiens, Huh-7, 120 h
HCCLM3 [19] = test: cells; conditions: Homo sapiens, HCCLM3, 120 h
Hep 3B2 [20] = test: Synergistic antiproliferative activity against human Hep3B cells measured after 72 hrs in presence of JQ1; type: functional, cell-based
Huh-7 [21] = test: Antiproliferative activity against human Huh-7 cells incubated for 120 hrs in presence of JQ1 by MTT assay; type: functional, cell-based; conditions: Huh-7, 120 h
HCCLM3 [22] = test: Antiproliferative activity against human HCCLM3 cells incubated for 120 hrs in presence of JQ1 by MTT assay; type: functional, cell-based; conditions: HCCLM3, 120 h
[23] = Antiproliferative activity against human LX2 cells incubated for 120 hrs in presence of JQ1 by MTT assay; type: toxicity, cell-based; conditions: LX-2 cells

Chain of Nicotinamide phosphoribosyltransferase (P43490 whole entry): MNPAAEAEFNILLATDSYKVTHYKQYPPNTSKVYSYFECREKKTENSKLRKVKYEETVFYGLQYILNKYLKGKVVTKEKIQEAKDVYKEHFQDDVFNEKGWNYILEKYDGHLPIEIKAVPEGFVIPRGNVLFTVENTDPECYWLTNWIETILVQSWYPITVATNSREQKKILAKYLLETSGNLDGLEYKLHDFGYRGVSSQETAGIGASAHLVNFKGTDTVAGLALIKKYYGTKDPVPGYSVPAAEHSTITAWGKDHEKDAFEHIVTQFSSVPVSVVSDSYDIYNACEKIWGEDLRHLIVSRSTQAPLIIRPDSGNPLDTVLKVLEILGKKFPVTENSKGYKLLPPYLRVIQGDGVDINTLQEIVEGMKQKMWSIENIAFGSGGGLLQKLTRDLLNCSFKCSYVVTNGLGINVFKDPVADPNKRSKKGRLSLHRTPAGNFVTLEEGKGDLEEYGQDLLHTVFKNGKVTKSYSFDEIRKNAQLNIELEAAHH

Question: For `Cc1sc2c(c1C)C(c1ccc(Cl)cc1)=N[C@@H](CC(=O)NCc1ccc(CNC(=O)/C=C/c3cccnc3)cc1)c1nnc(C)n1-2`, which IC50 [1] is on record?
Answer: 129 nM

Question: And the IC50 [2]?
Answer: 199 nM

Question: And the IC50 (Hep 3B2 [3])?
Answer: 4550 nM

Question: With `Cc1sc2c(c1C)C(c1ccc(Cl)cc1)=N[C@@H](CC(=O)OC(C)(C)C)c1nnc(C)n1-2` as the compound, how does the IC50 (Hep 3B2 [4]) read?
Answer: 5000 nM

Question: And the IC50 (Hep 3B2 [5])?
Answer: 1550 nM

Question: What about the IC50 at 120 h [6] of the same compound?
Answer: < 32 nM

Question: And the IC50 (Huh-7 [7])?
Answer: 670 nM

Question: What about the IC50 (HCCLM3 [8]) of the same compound?
Answer: 400 nM

Question: What about the IC50 at 120 h [9] of the same compound?
Answer: < 32 nM

Question: And the Activity (Hep 3B2 [10])?
Answer: 74.38%

Question: What about the Activity (Hep 3B2 [11]) of the same compound?
Answer: 16.25%

Question: What about the Activity (Hep 3B2 [12]) of the same compound?
Answer: 5.83%

Question: What about the Activity (Hep 3B2 [13]) of the same compound?
Answer: 3.54%

Question: What about the Activity (Hep 3B2 [14]) of the same compound?
Answer: 73.49%

Question: And the Activity (Hep 3B2 [15])?
Answer: 8.59%

Question: And the Activity (Hep 3B2 [16])?
Answer: 17.92%

Question: What about the TGI (HCCLM3 [17]) of the same compound?
Answer: 51.08%

Question: And the IC50 (Hep 3B2 [3])?
Answer: 5000 nM

Question: What about the IC50 (Huh-7 [18]) of the same compound?
Answer: 62800 nM

Question: What about the IC50 (HCCLM3 [19]) of the same compound?
Answer: 86200 nM

Question: Which results are given for `Cc1sc2c(c1C)C(c1ccc(Cl)cc1)=N[C@@H](CC(=O)NCCCCNC(=O)/C=C/c1cccnc1)c1nnc(C)n1-2`?
Answer: IC50 [1]: 127 nM; IC50 [2]: 10 nM; IC50 (Hep 3B2 [3]): 9090 nM

Question: Which IC50 [1] does the source give for `Cc1sc2c(c1C)C(c1ccc(Cl)cc1)=N[C@@H](CC(=O)NCCCCCCNC(=O)/C=C/c1cccnc1)c1nnc(C)n1-2` here?
Answer: 153 nM

Question: What about the IC50 [2] of the same compound?
Answer: 12 nM

Question: What about the IC50 (Hep 3B2 [3]) of the same compound?
Answer: 8140 nM

Question: With `Cc1sc2c(c1C)C(c1ccc(Cl)cc1)=N[C@@H](CC(=O)N1CCC(CCNC(=O)/C=C/c3cccnc3)CC1)c1nnc(C)n1-2` as the compound, how does the IC50 [1] read?
Answer: 180 nM

Question: And the IC50 [2]?
Answer: 87 nM

Question: And the IC50 (Hep 3B2 [3])?
Answer: 6260 nM

Question: For `Cc1sc2c(c1C)C(c1ccc(Cl)cc1)=N[C@@H](CC(=O)Nc1ccc(NC(=O)/C=C/c3cccnc3)cc1)c1nnc(C)n1-2`, which IC50 [1] is on record?
Answer: > 1000 nM

Question: And the IC50 [2]?
Answer: 456 nM

Question: What about the IC50 (Hep 3B2 [3]) of the same compound?
Answer: 24700 nM

Question: For `O=C(/C=C/c1cccnc1)NCCCCC1CCN(C(=O)c2ccccc2)CC1` [DAPORINAD], which IC50 (Hep 3B2 [4]) is on record?
Answer: 53700 nM

Question: What about the IC50 (Hep 3B2 [20]) of the same compound?
Answer: 1550 nM

Question: What about the IC50 at 120 h [6] of the same compound?
Answer: 210 nM

Question: What about the IC50 (Huh-7 [21]) of the same compound?
Answer: 670 nM

Question: And the IC50 (HCCLM3 [22])?
Answer: 400 nM

Question: And the IC50 at 120 h [23]?
Answer: < 32 nM

Question: What about the viability at 10 µM (Hep 3B2 [10]; Homo sapiens, Hep3B, read-out: Activity) of the same compound?
Answer: 86.9%

Question: What about the Activity (Hep 3B2 [11]) of the same compound?
Answer: 5.13%

Question: And the Activity (Hep 3B2 [12])?
Answer: 4.26%

Question: What about the Activity (Hep 3B2 [13]) of the same compound?
Answer: 3.67%

Question: What about the Activity (Hep 3B2 [14]) of the same compound?
Answer: 63.07%

Question: What about the Activity (Hep 3B2 [15]) of the same compound?
Answer: 8.31%

Question: And the Activity (Hep 3B2 [16])?
Answer: 28.62%

Question: What about the inhibition in vivo at 60 mg/kg (HCCLM3 [17]; Mus musculus, HCCLM3, 648 h, read-out: TGI) of the same compound?
Answer: 50.1%

Question: And the IC50 (Hep 3B2 [3])?
Answer: 53700 nM

Question: What about the IC50 (Huh-7 [18]) of the same compound?
Answer: 2120 nM

Question: And the IC50 (HCCLM3 [19])?
Answer: 1010 nM

Question: What does the source list for `Cc1sc2c(c1C)C(c1ccc(Cl)cc1)=N[C@@H](CC(=O)NCCOCCOCCNC(=O)/C=C/c1cccnc1)c1nnc(C)n1-2`?
Answer: IC50 [1]: 525 nM; IC50 [2]: 13 nM; IC50 (Hep 3B2 [3]): 21900 nM

Question: Which IC50 [1] does the source give for `Cc1sc2c(c1C)C(c1ccc(Cl)cc1)=N[C@@H](CC(=O)Nc1ccc(CCNC(=O)/C=C/c3cccnc3)cc1)c1nnc(C)n1-2` here?
Answer: > 1000 nM

Question: What about the IC50 [2] of the same compound?
Answer: 17 nM

Question: And the IC50 (Hep 3B2 [3])?
Answer: 11700 nM

Question: Which results are given for `Cc1sc2c(c1C)C(c1ccc(Cl)cc1)=N[C@@H](CC(=O)N1CCC(CNC(=O)/C=C/c3cccnc3)CC1)c1nnc(C)n1-2`?
Answer: IC50 [1]: 141 nM; IC50 [2]: > 1000 nM; IC50 (Hep 3B2 [3]): 5730 nM

Question: Which results are given for `Cc1sc2c(c1C)C(c1ccc(Cl)cc1)=N[C@@H](CC(=O)NCCCCCNC(=O)/C=C/c1cccnc1)c1nnc(C)n1-2`?
Answer: IC50 [1]: 387 nM; IC50 [2]: 115 nM; IC50 (Hep 3B2 [3]): 11300 nM

Question: For `Cc1sc2c(c1C)C(c1ccc(Cl)cc1)=N[C@@H](CC(=O)NCCOCCNC(=O)/C=C/c1cccnc1)c1nnc(C)n1-2`, which IC50 [1] is on record?
Answer: 315 nM

Question: What about the IC50 [2] of the same compound?
Answer: 167 nM

Question: And the IC50 (Hep 3B2 [3])?
Answer: 27300 nM

Question: Which IC50 [1] does the source give for `Cc1sc2c(c1C)C(c1ccc(Cl)cc1)=N[C@@H](CC(=O)NCCNC(=O)/C=C/c1cccnc1)c1nnc(C)n1-2` here?
Answer: 50 nM

Question: And the IC50 [2]?
Answer: 410 nM

Question: And the IC50 (Hep 3B2 [3])?
Answer: 12900 nM

Question: For `Cc1sc2c(c1C)C(c1ccc(Cl)cc1)=N[C@@H](CC(=O)N1CCC(CCCNC(=O)/C=C/c3cccnc3)CC1)c1nnc(C)n1-2`, which IC50 [1] is on record?
Answer: 615 nM

Question: And the IC50 [2]?
Answer: 165 nM

Question: What about the IC50 (Hep 3B2 [3]) of the same compound?
Answer: 4820 nM

Question: For `Cc1sc2c(c1C)C(c1ccc(Cl)cc1)=N[C@@H](CC(=O)N1CCC(NC(=O)/C=C/c3cccnc3)CC1)c1nnc(C)n1-2`, which IC50 [1] is on record?
Answer: 276 nM

Question: And the IC50 [2]?
Answer: > 1000 nM

Question: And the IC50 (Hep 3B2 [3])?
Answer: 5390 nM

Question: What does the source list for `Cc1sc2c(c1C)C(c1ccc(Cl)cc1)=N[C@@H](CC(=O)N1CCC(CCCCNC(=O)/C=C/c3cccnc3)CC1)c1nnc(C)n1-2`?
Answer: IC50 [1]: > 1000 nM; IC50 [2]: 35 nM; IC50 (Hep 3B2 [3]): 8080 nM

Question: What does the source list for `Cc1sc2c(c1C)C(c1ccc(Cl)cc1)=N[C@@H](CC(=O)NCc1ccc(NC(=O)/C=C/c3cccnc3)cc1)c1nnc(C)n1-2`?
Answer: IC50 [1]: 319 nM; IC50 [2]: 309 nM; IC50 (Hep 3B2 [3]): 9560 nM
